The values below come from doi:10.1101/382226v2 (biorxiv, 2019).

One experiment deals with T1, NOX4 (Homo sapiens, UniProt Q9NPH5).
T1 sequence (Q9NPH5 1-578): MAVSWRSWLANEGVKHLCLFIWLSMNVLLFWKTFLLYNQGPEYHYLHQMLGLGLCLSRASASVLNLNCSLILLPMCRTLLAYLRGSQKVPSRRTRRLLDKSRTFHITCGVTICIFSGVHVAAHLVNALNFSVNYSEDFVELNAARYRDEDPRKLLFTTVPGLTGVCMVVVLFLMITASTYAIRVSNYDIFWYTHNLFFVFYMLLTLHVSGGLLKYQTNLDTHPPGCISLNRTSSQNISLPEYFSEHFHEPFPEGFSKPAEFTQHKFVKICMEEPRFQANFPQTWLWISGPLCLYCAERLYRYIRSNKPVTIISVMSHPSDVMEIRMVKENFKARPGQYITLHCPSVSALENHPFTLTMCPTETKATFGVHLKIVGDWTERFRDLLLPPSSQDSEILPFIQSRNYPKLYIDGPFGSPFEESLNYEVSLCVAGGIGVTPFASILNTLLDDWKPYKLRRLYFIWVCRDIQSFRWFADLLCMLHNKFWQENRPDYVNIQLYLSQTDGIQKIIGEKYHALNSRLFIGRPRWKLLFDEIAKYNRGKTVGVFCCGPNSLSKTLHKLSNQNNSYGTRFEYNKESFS
T1 sequence (P13498 2-195 partner): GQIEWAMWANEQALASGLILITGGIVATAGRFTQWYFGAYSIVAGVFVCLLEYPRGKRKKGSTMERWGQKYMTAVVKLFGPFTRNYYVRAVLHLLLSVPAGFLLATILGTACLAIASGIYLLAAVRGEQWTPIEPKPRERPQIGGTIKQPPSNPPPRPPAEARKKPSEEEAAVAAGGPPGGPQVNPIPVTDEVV
In words: Amplex Red/HRP H2O2 fluorescence, intact transfected HEK293 cells. The class given is cell-based.

The target in the next experiment is NOX1 (Homo sapiens, UniProt Q9Y5S8). In words: luminol/HRP chemiluminescence, intact transfected HEK293 cells. The class given is cell-based.
Chain of NOX1 (Q9Y5S8 whole entry, one chain of several): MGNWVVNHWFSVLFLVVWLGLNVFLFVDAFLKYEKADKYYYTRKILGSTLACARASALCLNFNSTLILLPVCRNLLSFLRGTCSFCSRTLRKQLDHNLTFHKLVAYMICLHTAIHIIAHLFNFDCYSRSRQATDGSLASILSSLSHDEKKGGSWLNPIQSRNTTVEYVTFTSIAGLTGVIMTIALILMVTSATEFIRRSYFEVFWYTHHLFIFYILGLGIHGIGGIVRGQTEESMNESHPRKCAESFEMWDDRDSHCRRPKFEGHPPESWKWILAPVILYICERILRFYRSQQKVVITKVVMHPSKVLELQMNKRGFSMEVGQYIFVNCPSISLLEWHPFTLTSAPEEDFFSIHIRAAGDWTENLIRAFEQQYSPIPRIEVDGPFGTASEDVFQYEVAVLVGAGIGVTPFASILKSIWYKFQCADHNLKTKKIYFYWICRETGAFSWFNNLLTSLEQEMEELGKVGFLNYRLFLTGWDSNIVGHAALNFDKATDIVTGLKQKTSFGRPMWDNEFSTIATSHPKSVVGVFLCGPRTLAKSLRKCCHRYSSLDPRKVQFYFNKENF
Chain of NOX1 (Q8NFA2 whole entry partner, one chain of several): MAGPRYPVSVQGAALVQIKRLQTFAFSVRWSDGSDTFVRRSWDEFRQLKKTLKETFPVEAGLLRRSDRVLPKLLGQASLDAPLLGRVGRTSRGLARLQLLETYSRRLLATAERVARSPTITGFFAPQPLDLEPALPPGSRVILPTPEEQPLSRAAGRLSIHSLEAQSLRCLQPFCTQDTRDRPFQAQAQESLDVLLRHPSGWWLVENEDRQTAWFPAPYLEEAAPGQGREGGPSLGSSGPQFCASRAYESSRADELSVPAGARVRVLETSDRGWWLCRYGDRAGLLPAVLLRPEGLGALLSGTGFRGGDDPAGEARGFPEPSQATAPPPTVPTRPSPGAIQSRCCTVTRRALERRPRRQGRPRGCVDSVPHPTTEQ
Chain of NOX1 (Q86UR1 whole entry partner, one chain of several): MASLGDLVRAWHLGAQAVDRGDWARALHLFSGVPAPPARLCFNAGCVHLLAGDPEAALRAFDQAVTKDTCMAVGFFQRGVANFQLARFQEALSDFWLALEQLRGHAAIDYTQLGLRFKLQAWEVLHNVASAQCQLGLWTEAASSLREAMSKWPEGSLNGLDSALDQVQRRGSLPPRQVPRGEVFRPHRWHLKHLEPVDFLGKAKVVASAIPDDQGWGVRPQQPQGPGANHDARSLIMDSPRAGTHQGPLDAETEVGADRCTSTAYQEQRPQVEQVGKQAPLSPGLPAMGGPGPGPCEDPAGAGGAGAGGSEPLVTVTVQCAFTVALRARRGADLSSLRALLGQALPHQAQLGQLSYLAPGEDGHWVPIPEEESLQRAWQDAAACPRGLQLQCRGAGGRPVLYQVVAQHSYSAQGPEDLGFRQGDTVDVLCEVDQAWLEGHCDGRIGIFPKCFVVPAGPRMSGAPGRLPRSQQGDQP

Broadly, the IC50 is the concentration that gives 50% inhibition. Low values mean greater potency in that assay, high ones weaker potency in that assay. Regarding `c1ccc2c(c1)Nc1nc3ccccc3nc1N2` [ML090, 5,12-Dihydroquinoxalino(2,3-B)quinoxaline], the figures for the IC50 at NOX4 and against NOX1 were 0.0204 µM and 0.0251 µM, respectively.
